Values joined by “and” are separate entries in the source; they are usually repeats but may differ in a detail not shown here. Equal entries are not always repeated. Where a SMILES comes first, the peptide text is derived from it.
Key:
GNRR-3 = target: T1, GNRR-3 (Caenorhabditis elegans, UniProt Q23265); assay: Receptor activation assay (aequorin calcium mobilization), GNRR-3 co-expressed with promiscuous Gα16 in CHO cells; assay type: cell-based, C. elegans; details: for EC50: CHO cells stably expressing apo-aequorin and Gα16, transiently transfected receptor, aequorin luminescence relative to total calcium response, mean EC50, N = 5–7 replicates, 95% confidence interval given; for Activation of GNRR-3 (in words): CHO/apo-aequorin/Gα16 calcium mobilization assay, peptides initially tested at 10 µM
T1 sequence (Q23265 1-395): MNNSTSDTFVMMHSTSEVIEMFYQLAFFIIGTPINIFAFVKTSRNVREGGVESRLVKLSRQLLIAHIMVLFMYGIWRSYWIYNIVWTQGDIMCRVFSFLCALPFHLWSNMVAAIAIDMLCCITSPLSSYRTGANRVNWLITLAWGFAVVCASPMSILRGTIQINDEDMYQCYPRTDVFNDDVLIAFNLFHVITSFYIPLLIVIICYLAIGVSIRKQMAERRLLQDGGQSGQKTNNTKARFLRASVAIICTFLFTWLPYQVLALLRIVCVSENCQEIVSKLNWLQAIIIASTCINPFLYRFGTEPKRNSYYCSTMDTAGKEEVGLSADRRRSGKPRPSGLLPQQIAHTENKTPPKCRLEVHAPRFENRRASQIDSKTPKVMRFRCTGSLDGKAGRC
From the text: (§1) We tested a C. elegans peptide library for the ability to activate these seven receptors using an in vitro calcium mobilization assay. We cloned and transiently expressed each of the seven GNRRs in Chinese hamster ovary (CHO) cells stably expressing apo-aequorin and the human promiscuous Gα16 protein. These cells were challenged with a synthetic library of over 340 C. elegans peptides of the RFamide (FLP) and neuropeptide-like protein (NLP) families. […] Peptides encoded by nlp-2 and nlp-23 potently activated GNRR-3 with EC50 values in the nanomolar range. By contrast, NLP-22 activated GNRR-3 with far lower potency (EC50 value > 6 µM), which may be physiologically irrelevant. GNRR-6 was potently activated by NLP-22 and NLP-23 peptides. Peptides encoded by nlp-2 also activated GNRR-6, although with a higher EC50 value than NLP-22 and NLP-23. […] In short, we identified the neuropeptides encoded by nlp-2, nlp-22 and nlp-23 as bioactive ligands of the GnRH/AKH-like receptors GNRR-3 and GNRR-6 in vitro.
(§2) Figure 2 NLP-2, NLP-22, and NLP-23 peptides activate GNRR-3 and GNRR-6 in vitro. Dose-response curves for GNRR-3 (A) and GNRR-6 (B) co-expressed in CHO cells with a promiscuous Gα16 protein are shown as relative (%) to the highest value (100% activation) after normalization to the total calcium response. Each data point represents the mean ± SEM of N = 5–7 replicates for each peptide. (C) Amino acid (AA) sequences of RPamide neuropeptides activating GNRR-3 and GNRR-6 with their respective mean EC50 values and 95% Confidence intervals.
(§3) Peptides were custom-synthesized by GL Biochem Ltd. All peptides were initially tested at a concentration of 10 µM. Receptor activating peptides were purified using reverse-phase HPLC and verified using MALDI TOF mass spectrometry. Peptide concentrations were determined with a bicinchoninic acid (BCA) assay. For receptor activation assays, peptides were first lyophilized and then diluted to the desired concentrations.
(§4) Chinese hamster ovary (CHO) cells stably expressing apo-aequorin and the promiscuous Gα16 subunit were used for receptor deorphanization (ES-000-A24, Perkin-Elmer). To characterize downstream signaling, CHO cells stably expressing apo-aequorin but lacking the promiscuous Gα16 protein were used (ES-000-A12, Perkin-Elmer). Cells were cultured in Dulbecco’s Modified Eagle’s Medium Nutrient Mixture Ham F-12 (DMEM/F-12, Invitrogen) to which 1% penicillin/streptomycin, 2.5 µg/ml amphotericin B, and 10% fetal bovine serum (Sigma-Aldrich) were added. Growth medium was supplemented with 250 µg/ml zeocin or 5 µg/ml puromycin, which serves as a selection reagent for CHO cells with or without the promiscuous Gα16 subunit, respectively. Cells were grown as a monolayer at 37 °C, 5% CO2 and high humidity. For transfection, 3.75 ml Opti-MEM I (Invitrogen), 7.5 µg pcDNA3.1 construct and 18.75 µl Plus reagent (Invitrogen) were gently mixed in a polystyrene tube. After incubation for 5 minutes at room temperature, 45 µl Lipofectamine LTX (Invitrogen) was added and gently mixed. The transfection reagent was incubated for 30 min at room temperature. Growth medium was removed leaving 3 ml and the transfection reagents were added dropwise to the cells. Transfected cells were grown overnight and 20 ml growth medium was added the next day. Cells were grown one more day before the assay at 28 °C.
(§5) Two days after transfection, CHO cells were detached from the surface of the culture flask using phosphate buffered saline with 0.2% EDTA and collected in 10 ml colorless DMEM/F-12 (11039, Gibco). Cell viability was measured using a NucleoCounter NC-100 (Chemometic). Cells were pelleted for 4 min at 800 rpm at room temperature and resuspended to a concentration of 5 × 10^6 cells/ml in colorless DMEM/F12 with 0.1% bovine serum albumin (BSA). 5 µM coelenterazine H (Invitrogen) was added to the cell suspension. […]

GNRR-6 = target: T2, GNRR-6 (Caenorhabditis elegans, UniProt Q19399); assay: Receptor activation assay (aequorin calcium mobilization), GNRR-6 co-expressed with promiscuous Gα16 in CHO cells; assay type: cell-based, C. elegans; details: for EC50: CHO cells stably expressing apo-aequorin and Gα16, transiently transfected receptor, aequorin luminescence relative to total calcium response, mean EC50, N = 5–7 replicates, 95% confidence interval given; for Activation of GNRR-6 (in words): CHO/apo-aequorin/Gα16 calcium mobilization assay, peptides initially tested at 10 µM
T2 sequence (Q19399 1-400): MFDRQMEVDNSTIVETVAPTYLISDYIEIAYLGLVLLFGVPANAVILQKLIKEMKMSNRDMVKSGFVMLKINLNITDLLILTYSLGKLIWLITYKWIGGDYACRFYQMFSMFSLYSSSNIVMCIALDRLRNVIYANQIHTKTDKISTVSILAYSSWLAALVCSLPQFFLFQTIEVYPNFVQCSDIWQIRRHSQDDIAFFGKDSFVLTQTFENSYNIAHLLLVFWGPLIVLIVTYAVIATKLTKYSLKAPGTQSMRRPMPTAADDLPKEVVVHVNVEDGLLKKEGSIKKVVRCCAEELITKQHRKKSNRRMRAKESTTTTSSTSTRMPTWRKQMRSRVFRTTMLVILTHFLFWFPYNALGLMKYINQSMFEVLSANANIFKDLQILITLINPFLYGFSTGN
From the text: as §1, §2, §3, §4, §5

Row | Molecule | EC50 (GNRR-3) | Activation of GNRR-3 (in words) (GNRR-3) | EC50 (GNRR-6) | Activation of GNRR-6 (in words) (GNRR-6)
1 | CC[C@H](C)[C@H](NC(=O)[C@@H](N)CO)C(=O)N[C@@H](C)C(=O)N[C@@H](CC(C)C)C(=O)NCC(=O)N[C@@H](CCCNC(=N)N)C(=O)N[C@@H](CO)C(=O)NCC(=O)N[C@@H](Cc1ccccc1)C(=O)N[C@@H](CCCNC(=N)N)C(=O)N1CCC[C@H]1C(N)=O [NLP-2-1] (H-SIALGRSGFRP-NH2; N-terminus assumed) | 81000 nM | activated these receptors in a dose-dependent manner | 135 nM | activated these receptors in a dose-dependent manner
2 | CSCC[C@H](NC(=O)[C@H](C)NC(=O)[C@H](CCSC)NC(=O)[C@@H](N)CO)C(=O)NCC(=O)N[C@@H](CCCNC(=N)N)C(=O)N[C@@H](CC(C)C)C(=O)NCC(=O)N[C@@H](CC(C)C)C(=O)N[C@@H](CCCNC(=N)N)C(=O)N1CCC[C@H]1C(N)=O [NLP-2-2] (H-SMAMGRLGLRP-NH2; N-terminus assumed) | 558 nM | activated these receptors in a dose-dependent manner | 542 nM | activated these receptors in a dose-dependent manner
3 | CSCC[C@H](NC(=O)[C@@H](N)CO)C(=O)N[C@@H](C)C(=O)N[C@@H](Cc1ccc(O)cc1)C(=O)NCC(=O)N[C@@H](CCCNC(=N)N)C(=O)N[C@@H](CCC(N)=O)C(=O)NCC(=O)N[C@@H](Cc1ccccc1)C(=O)N[C@@H](CCCNC(=N)N)C(=O)N1CCC[C@H]1C(N)=O [NLP-2-3] (H-SMAYGRQGFRP-NH2; N-terminus assumed) | 3300 nM | activated these receptors in a dose-dependent manner | 169 nM | activated these receptors in a dose-dependent manner
4 | CC[C@H](C)[C@H](NC(=O)[C@H](C)NC(=O)[C@@H](NC(=O)[C@@H](N)CO)[C@@H](C)CC)C(=O)NCC(=O)N[C@@H](CCCNC(=N)N)C(=O)N[C@@H](C)C(=O)NCC(=O)N[C@@H](Cc1ccccc1)C(=O)N[C@@H](CCCNC(=N)N)C(=O)N1CCC[C@H]1C(N)=O [NLP-22] (H-SIAIGRAGFRP-NH2; N-terminus assumed) | > 6000 nM and 6700 nM | activated these receptors in a dose-dependent manner | 4.1 nM | activated these receptors in a dose-dependent manner
5 | CC[C@H](C)[C@H](NC(=O)[C@H](C)NC(=O)[C@H](CCSC)NC(=O)[C@@H](N)CO)C(=O)NCC(=O)N[C@@H](CCCNC(=N)N)C(=O)N[C@@H](C)C(=O)NCC(=O)N[C@@H](CCSC)C(=O)N[C@@H](CCCNC(=N)N)C(=O)N1CCC[C@H]1C(N)=O [NLP-23-2] (H-SMAIGRAGMRP-NH2; N-terminus assumed) | 158 nM | activated these receptors in a dose-dependent manner | 6 nM | activated these receptors in a dose-dependent manner
6 | LYISRQGFRPA [NLP-23-1, NLP-23 derived peptide … lacking the C-terminal glycine amidation target] |  | did not activate |  | did not activate

From publication PMC7303124, “RPamide neuropeptides NLP-22 and NLP-2 act through GnRH-like receptors to promote sleep and wakefulness in C. elegans” (Scientific Reports, 2020)
